Measured values published in US9789095B2, “Inhibitors of calcium-activated chloride channels” (The Regents of the University of California, priority 2007, dated 2017).
One block for each compound: values may come before it.

Experiments:
[1] = tested on: agonist-induced [Ca2+]i elevation; assay: Cytoplasmic calcium measurement by Fura-2 fluorescence in HT-29 cells; format: cell-based, human; details: pretreatment at high concentration prior to agonist
Experimental: [Ca^2+]i was measured in confluent monolayers of HT-29 cells after loading with Fura-2 (2 μM Fura-2-AM, 30 min, 37° C.). Labeled cells were mounted in a perfusion chamber on the stage of an inverted epifluorescence microscope. Cells were superfused with (in mM): 140 NaCl, 5 KCl, 1 MgCl2, 1 CaCl2, 10 D-glucose, and 10 HEPES (pH 7.4), initially without and then with ATP/carbachol. Test compounds were present in some experiments for 10 min prior to agonist addition. Fura-2 fluorescence was recorded at excitation wavelengths of 340 nm and 380 nm using standard procedures

[2] = tested on: CaCC in T84 cells; assay: Short-circuit current (chloride secretion) in T84 cell monolayers; format: cell-based, human
Experimental: ATP/carbachol were used to induce calcium-dependent chloride secretion in well-differentiated T84 cell monolayers. T84 cells were seeded at a density of 10^5 cm^−2 on permeable supports (Snapwell, 1.12 cm^2 surface area) and grown until confluent. Supports containing confluent cell monolayers were mounted in Snapwell diffusion chambers. Cells were bathed for a 30 min stabilization period in HCO3^−-buffered solution containing (mmol/L): 120 NaCl, 5 KCl, 1 MgCl2, 1 CaCl2, 10 D-glucose, 5 HEPES, and 25 NaHCO3 (pH 7.4), aerated with 95% O2/5% CO2 at 37° C. Monolayers were voltage-clamped at 0 mV (EVC4000 Multi-Channel V/I Clamp, World Precision Instruments), and short-circuit current (Isc) was recorded continuously with agonists/inhibitors added at specified times.

[3] = tested on: calcium-activated chloride channel (CaCC); assay: Whole-cell patch-clamp of calcium-dependent chloride current in HT-29 cells; format: cell-based, human; details: for calcium-dependent chloride current reduced: 1 μM ionomycin, HT-29; for ionomycin-induced chloride currents, symmetric NMDG-Cl solutions: whole-cell, pretreatment
Experimental: Whole cell recordings were accomplished with HT-29 cells at room temperature. The pipette solution contained (in mM): 30 CsCl, 100 Cs-aspartate, 1 MgCl2, 0.5 EGTA, 2 Tris-ATP, and 10 HEPES (pH 7.2 with CsOH), and the bath solution contained (in mM) 140 N-methyl-D-glucamine chloride (NMDG-Cl), 1 CaCl2, 1 MgCl2, 10 glucose, and 10 HEPES (pH 7.2). In one set of studies, symmetric NMDG-Cl solutions contained 140 mM NMDG-Cl, 1 mM MgCl2, 0.5 mM EGTA, 2 mM Tris-ATP, and 10 mM HEPES, pH 7.2. Pipettes were pulled from borosilicate glass and had resistances of 3-5 MΩ after fire polishing. Seal resistances were typically between 3-10 GΩ. After establishing the whole cell configuration, CaCCs were activated by 1 μM ionomycin. Whole cell currents were elicited by applying hyperpolarizing and depolarizing voltage pulses from a holding potential of 0 mV to potentials between −120 mV and +120 mV in steps of 20 mV. Currents were filtered at 5 kHz, and digitized and analyzed using an AxoScope 10.0 system and a Digidata 1440A […] (Molecular Devices, Sunnyvale, Calif.). Mean currents were expressed as current densities (picoampere per picofarad (pA/pF)).

[4] = tested on: CaMKII phosphorylation; assay: CaMKII phosphorylation immunoblot in HT-29 cells; format: cell-based; details: 30 μM pretreatment, ATP/carbachol
From the text: CaMKII Regulation of CaCC activation by CaMKII occurs in a cell type-dependent manner (Hartzell et al., Annu. Rev. Physiol. 67:719-58 (2005)). CaMKII has been reported to regulate calcium-activated chloride current in HT-29 and T84 cells (Worrell et al., Am. J. Physiol. 260:C877-82 (1991); Morris et al., Am. J. Physiol. 264:C977-85 (1993); Chan et al., J. Biol. Chem. 269:32464-8 (1994); Braun et al., J. Physiol. 488:37-55 (1995)). To determine whether the CaCC inhibitors interfered with ATP/carbachol-induced CaMKII activation, CaMKII phosphorylation in HT-29 cells was measured by immunoblot analysis. Calcium/calmodulin-dependent protein kinase II (CaMKII) was activated by 2 min treatment of HT-29 cells with ATP/carbachol (each 100 μM). Cells were then lysed with cell lysis buffer (20 mM Tris-HCl (pH 7.4), 1% Triton X-100, 150 mM NaCl, 2 mM EDTA, 50 mM α-glycerolphosphate, 1 mM Na3VO4, 1 mM DTT, and complete protease inhibitor mixture (Roche Applied Science)). Cell debris was removed by centrifugation, and proteins in the supernatant were resolved by SDS-PAGE and immunoblotted using standard procedures (transfer to PDVF membrane, 1 h blocking in 5% nonfat dry milk, primary/secondary antibody incubations, enhanced chemiluminescence detection). Rabbit polyclonal antibodies for anti-phospho-CaMKII (Thr286) and β-actin were purchased from Cell Signaling Technology (Danvers, Mass.).

[5] = tested on: calcium-activated chloride channel (CaCC); assay: YFP fluorescence plate reader iodide influx assay in HT-29 cells (ATP/carbachol); format: cell-based, human; details: semi-quantitative
Experimental: Screening was performed using a customized screening system (BECKMAN COULTER, Inc., Indianapolis, Ind.) consisting of the SAGIAN Core system integrated with SAMI software, and equipped with an ORCA arm for labware transport, a 96-channel head BIOMEK FX, CO2 incubator, plate washer, bar code reader, delidding station, and two FLUOstar OPTIMA fluorescence plate readers (BMG Labtechnologies, Durham, N.C.), each equipped with syringe pumps and custom excitation/emission filters (500/544 nm; CHROMA, Brattleboro, Vt.).
HT-29 cells expressing YFP-H148Q/I152L were plated in 96-well plates at 70% confluence. Plates were incubated overnight at 37° C., 5% CO2 and then the growth medium was replaced with fresh growth medium. […] YFP fluorescence was measured 1 s before and for 30 s after addition of a PBS-iodide solution (PBS that has 100 mM chloride replaced by iodide) containing carbachol and ATP (100 μM each). Each 96-well plate contained ‘positive’ controls (DMSO vehicle without agonists or test compounds) and ‘negative’ controls (DMSO vehicle with agonists but without test compounds). In some experiments solutions included (individually or in combination): carbachol, ATP, or histamine (at 50, 100, 150 or 200 μM), calcimycin (10 μM), thapsigargin (2 μM) and CFTRinh-172 (20 μM).
Iodide influx (d[I^−]/dt at t=0) was computed from fluorescence time course data by single exponential regression, as described (Ma et al., J. Clin. Invest. 110:1651-8 (2002)). Percentage inhibition was computed as: percentage inhibition=100×(Slopenegative control−Slopetest compound)/(Slopenegative control−Slopepositive control).

[6] = biological target: T1, human wildtype CFTR (Homo sapiens, UniProt P13569); assay: Iodide influx in FRT cells expressing human wildtype CFTR; format: cell-based; details: 20 μM
T1 construct: expressed in transfected cells; host or cells: Fisher rat thyroid (FRT) cells
Experimental: Cystic Fibrosis Transmembrane Conductance Regulator (CFTR) Experiments were performed to determine whether the compounds affected CFTR because CFTR is a major intestinal chloride channel and evidence exists for cross-talk between cAMP and calcium signaling in intestinal cell chloride secretion (Schultheiss et al., Eur. J. Pharmacol. 546:161-70 (2006); Takahashi et al., J. Med. Microbiol. 49:801-10 (2000); Chao et al., EMBO J. 13:1065-72 (1994)). As described (Ma et al., J. Clin. Invest. 110:1651-8 (2002)), FRT cells expressing human wildtype CFTR and YFP-H148Q/I152L, at 100% confluence, were washed 3 times with PBS, leaving 60 μL. CFTR was activated by a cocktail containing forskolin (20 μM), genistein (50 μM), and isobutylmethylxanthine (100 μM). Iodide influx as described in Example 1 was measured at 10 min after addition of test compounds by determining YFP fluorescence for 2 s before and 20 s after addition of 165 μl of PBS-iodide.

[7] = Aqueous solubility in PBS by optical absorbance of a saturated solution; format: physicochemical; details: aqueous buffer, thermodynamic from solid
From the text: The high aqueous solubility is a consequence of their polarity and negative charge at physiological pH.

T1 sequence (P13569 whole entry): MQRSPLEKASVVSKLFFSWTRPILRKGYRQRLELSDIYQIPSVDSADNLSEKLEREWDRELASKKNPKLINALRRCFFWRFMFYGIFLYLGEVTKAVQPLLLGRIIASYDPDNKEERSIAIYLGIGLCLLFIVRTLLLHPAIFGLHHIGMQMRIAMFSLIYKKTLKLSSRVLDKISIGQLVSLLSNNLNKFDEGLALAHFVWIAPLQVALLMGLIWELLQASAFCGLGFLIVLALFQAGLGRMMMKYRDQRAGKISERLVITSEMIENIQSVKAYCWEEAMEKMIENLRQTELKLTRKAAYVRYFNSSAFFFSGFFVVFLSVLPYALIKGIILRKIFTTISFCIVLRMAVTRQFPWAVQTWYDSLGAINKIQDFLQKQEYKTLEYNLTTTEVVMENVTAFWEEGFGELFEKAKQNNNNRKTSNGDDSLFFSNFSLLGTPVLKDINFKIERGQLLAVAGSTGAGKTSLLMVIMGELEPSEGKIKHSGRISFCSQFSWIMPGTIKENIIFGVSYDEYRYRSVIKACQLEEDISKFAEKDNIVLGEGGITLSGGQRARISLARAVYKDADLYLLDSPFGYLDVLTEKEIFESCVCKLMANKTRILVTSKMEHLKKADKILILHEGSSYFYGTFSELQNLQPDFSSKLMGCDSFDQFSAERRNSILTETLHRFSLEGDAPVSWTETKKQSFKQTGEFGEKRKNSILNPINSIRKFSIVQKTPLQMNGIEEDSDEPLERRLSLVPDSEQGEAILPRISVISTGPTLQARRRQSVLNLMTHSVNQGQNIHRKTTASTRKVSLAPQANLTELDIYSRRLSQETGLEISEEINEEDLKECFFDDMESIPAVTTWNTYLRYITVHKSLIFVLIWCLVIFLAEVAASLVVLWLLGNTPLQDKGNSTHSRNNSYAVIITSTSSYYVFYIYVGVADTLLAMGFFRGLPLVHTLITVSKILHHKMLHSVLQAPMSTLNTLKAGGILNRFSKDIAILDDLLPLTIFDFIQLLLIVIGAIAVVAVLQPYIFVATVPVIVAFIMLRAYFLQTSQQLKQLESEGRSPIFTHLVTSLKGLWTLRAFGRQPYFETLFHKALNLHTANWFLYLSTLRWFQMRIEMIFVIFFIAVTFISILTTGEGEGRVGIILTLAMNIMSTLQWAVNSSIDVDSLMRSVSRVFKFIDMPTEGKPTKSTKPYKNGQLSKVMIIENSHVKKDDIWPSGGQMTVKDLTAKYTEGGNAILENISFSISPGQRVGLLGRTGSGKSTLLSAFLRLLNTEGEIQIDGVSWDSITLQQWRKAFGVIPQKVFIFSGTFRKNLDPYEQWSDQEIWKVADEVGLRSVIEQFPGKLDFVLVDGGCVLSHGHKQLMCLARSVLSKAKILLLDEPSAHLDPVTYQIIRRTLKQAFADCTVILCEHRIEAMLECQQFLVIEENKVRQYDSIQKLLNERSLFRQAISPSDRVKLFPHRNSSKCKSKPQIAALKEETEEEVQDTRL

Compound: 2-hydroxy-5-(4-p-tolylthiazol-2-ylamino)benzoic acid [CaCCinh-B01]
- ATP or carbachol-induced [Ca2+]i elevations [1]: did not significantly reduce
- ATP-induced short-circuit current reduced ([2]; 10 μM compound): 29±11%
- ATP-induced short-circuit current reduced ([2]; 30 μM compound): 64±3%
- calcium-dependent chloride current reduced ([3]; 0.1 μM compound): 11±7%
- calcium-dependent chloride current reduced ([3]; 1 μM compound): 34±12%
- calcium-dependent chloride current reduced ([3]; 10 μM compound): 77±4%
- ionomycin-induced chloride currents, symmetric NMDG-Cl solutions [3]: reduced ionomycin-induced currents
- agonist-induced CaMKII phosphorylation [4]: did not significantly affect
- % inhibition at 25 μM ([5]; class B aminothiazoles): 100%

- CFTR inhibition (iodide influx), positive control [6]: inhibition
Compound: O=C(O)c1ccc(C=C2SC(=S)N(c3cccc(C(F)(F)F)c3)C2=O)cc1 [CFTRinh-172, 3-[(3-trifluoromethyl)phenyl]-5-[(4-carboxyphenyl)methylene]-2-thioxo-4-thiazolidinone, reference compound]

- solubility [7]: > 500 µM
Compound: CC(C)(C)C1CCc2c(sc(NC(=O)c3ccco3)c2C(=O)O)C1 (centres unmarked) [CaCCinh-A01, 6-tert-butyl-2-(furan-2-carboxamido)-4,5,6,7-tetrahydrobenzo[b]thiophene-3-carboxylic acid]
- ATP or carbachol-induced [Ca2+]i elevations [1]: did not significantly reduce
- ATP-induced short-circuit current reduced ([2]; 10 μM compound): 38±7%
- ATP-induced short-circuit current reduced ([2]; 30 μM compound): 78±3%
- calcium-dependent chloride current reduced ([3]; 0.1 μM compound): 38±14%
- calcium-dependent chloride current reduced ([3]; 1 μM compound): 66±10%
- calcium-dependent chloride current reduced ([3]; 10 μM compound): 91±1%
- ionomycin-induced chloride currents, symmetric NMDG-Cl solutions [3]: reduced ionomycin-induced currents
- agonist-induced CaMKII phosphorylation [4]: did not significantly affect
- % inhibition at 25 μM ([5]; class A aminothiophenes): 100%
